Test results from PubChem BioAssay (NCI).
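Values below derive from 48-hour exposures of cells grown in 96-well plates, with endpoints linearly interpolated between the two concentrations bracketing the appropriate inhibition level. GI50 is the concentration that inhibits growth by half. TGI marks complete inhibition of growth.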

Tests used:
Test in all cases: NCI-60 cell line screen, 48 h
SNB-75 CNS = tested on: SNB-75 CNS
HCT-116 colon = tested on: HCT-116 colon
NCI-H460 lung = tested on: NCI-H460 lung
HOP-62 NSCLC = tested on: HOP-62 NSCLC
SF-539 CNS = tested on: SF-539 CNS
SN12C renal = tested on: SN12C renal
M14 melanoma = tested on: M14 melanoma
UO-31 renal = tested on: UO-31 renal
HCT-15 colon = tested on: HCT-15 colon
HT29 colon = tested on: HT29 colon
RPMI-8226 leukemia = tested on: RPMI-8226 leukemia
A498 renal = tested on: A498 renal
ACHN renal = tested on: ACHN renal
NCI/ADR-RES ovarian = tested on: NCI/ADR-RES ovarian
RXF 393 renal = tested on: RXF 393 renal
SK-OV-3 ovarian = tested on: SK-OV-3 ovarian
HS 578T breast = tested on: HS 578T breast
U251 CNS = tested on: U251 CNS
MDA-MB-435 = tested on: MDA-MB-435
SNB-19 CNS = tested on: SNB-19 CNS
MALME-3M melanoma = tested on: MALME-3M melanoma
SK-MEL-5 melanoma = tested on: SK-MEL-5 melanoma
SK-MEL-28 melanoma = tested on: SK-MEL-28 melanoma
MCF7 breast = tested on: MCF7 breast
SW-620 colon = tested on: SW-620 colon
TK-10 renal = tested on: TK-10 renal
UACC-257 melanoma = tested on: UACC-257 melanoma
SR leukemia = tested on: SR leukemia
DU-145 prostate = tested on: DU-145 prostate
SF-295 CNS = tested on: SF-295 CNS
KM12 colon = tested on: KM12 colon
MOLT-4 leukemia = tested on: MOLT-4 leukemia
HCC-2998 colon = tested on: HCC-2998 colon
EKVX NSCLC = tested on: EKVX NSCLC
UACC-62 melanoma = tested on: UACC-62 melanoma
HOP-92 NSCLC = tested on: HOP-92 NSCLC
CCRF-CEM leukemia = tested on: CCRF-CEM leukemia
IGROV1 ovarian = tested on: IGROV1 ovarian
K-562 leukemia = tested on: K-562 leukemia
NCI-H23 lung = tested on: NCI-H23 lung
MDA-MB-468 breast = tested on: MDA-MB-468 breast
CAKI-1 renal = tested on: CAKI-1 renal
OVCAR-5 ovarian = tested on: OVCAR-5 ovarian
BT-549 breast = tested on: BT-549 breast
A549 NSCLC = tested on: A549 NSCLC
PC-3 prostate = tested on: PC-3 prostate
LOX IMVI melanoma = tested on: LOX IMVI melanoma
SK-MEL-2 melanoma = tested on: SK-MEL-2 melanoma
OVCAR-3 ovarian = tested on: OVCAR-3 ovarian
T-47D breast = tested on: T-47D breast
OVCAR-4 ovarian = tested on: OVCAR-4 ovarian
786-0 renal = tested on: 786-0 renal
SF-268 CNS = tested on: SF-268 CNS
MDA-MB-231 breast = tested on: MDA-MB-231 breast
HL-60(TB) leukemia = tested on: HL-60(TB) leukemia
OVCAR-8 ovarian = tested on: OVCAR-8 ovarian
NCI-H226 lung = tested on: NCI-H226 lung
COLO 205 colon = tested on: COLO 205 colon
NCI-H522 lung = tested on: NCI-H522 lung

CCCn1c(=O)c2[nH]c(-c3ccc(OCc4nc5ccc(F)cc5[nH]4)cc3)nc2n(CCC)c1=O was tested, and the GI50 (SNB-75 CNS) was 2480 nM, the TGI (SNB-75 CNS) was 20.2 µM and the GI50 (HCT-116 colon) was 22.4 µM. For the same compound, the TGI (HCT-116 colon) was > 100 µM, the GI50 (NCI-H460 lung) was 11.1 µM and the TGI (NCI-H460 lung) was 32.3 µM. For the same compound, the GI50 (HOP-62 NSCLC) was 9.88 µM, the TGI (HOP-62 NSCLC) was > 100 µM and the GI50 (SF-539 CNS) was 12.2 µM. For the same compound, the TGI (SF-539 CNS) was 27.7 µM, the GI50 (SN12C renal) was 16.5 µM and the TGI (SN12C renal) was > 100 µM. For the same compound, the GI50 (M14 melanoma) was 52 µM, the TGI (M14 melanoma) was > 100 µM and the GI50 (UO-31 renal) was 9.09 µM. The TGI (UO-31 renal) was 29 µM, the GI50 (HCT-15 colon) was 30 µM and the TGI (HCT-15 colon) was > 100 µM. For the same compound, the GI50 (HT29 colon) was 26.9 µM, the TGI (HT29 colon) was > 100 µM and the GI50 (RPMI-8226 leukemia) was 5.14 µM. For the same compound, the TGI (RPMI-8226 leukemia) was > 100 µM, the GI50 (A498 renal) was 3.36 µM and the TGI (A498 renal) was 21.3 µM. For the same compound, the GI50 (ACHN renal) was 14.9 µM, the TGI (ACHN renal) was 50.1 µM and the GI50 (NCI/ADR-RES ovarian) was 30.4 µM. The TGI (NCI/ADR-RES ovarian) was > 100 µM, the GI50 (RXF 393 renal) was 2760 nM and the TGI (RXF 393 renal) was 11.3 µM. The GI50 (SK-OV-3 ovarian) was 21 µM, the TGI (SK-OV-3 ovarian) was > 100 µM and the GI50 (HS 578T breast) was 4.1 µM. For the same compound, the TGI (HS 578T breast) was > 100 µM, the GI50 (U251 CNS) was 17.3 µM and the TGI (U251 CNS) was > 100 µM. For the same compound, the GI50 (MDA-MB-435) was 25.1 µM, the TGI (MDA-MB-435) was > 100 µM and the GI50 (SNB-19 CNS) was > 100 µM. The TGI (SNB-19 CNS) was > 100 µM, the GI50 (MALME-3M melanoma) was 12.6 µM and the TGI (MALME-3M melanoma) was 38.7 µM. The GI50 (SK-MEL-5 melanoma) was 8.5 µM, the TGI (SK-MEL-5 melanoma) was 33.3 µM and the GI50 (SK-MEL-28 melanoma) was 28.1 µM. For the same compound, the TGI (SK-MEL-28 melanoma) was > 100 µM, the GI50 (MCF7 breast) was 8.54 µM and the TGI (MCF7 breast) was 93.2 µM. The GI50 (SW-620 colon) was 37.2 µM, the TGI (SW-620 colon) was > 100 µM and the GI50 (TK-10 renal) was 24.4 µM. For the same compound, the TGI (TK-10 renal) was > 100 µM, the GI50 (UACC-257 melanoma) was 30.4 µM and the TGI (UACC-257 melanoma) was > 100 µM. For the same compound, the GI50 (SR leukemia) was 22.3 µM, the TGI (SR leukemia) was > 100 µM and the GI50 (DU-145 prostate) was 41.5 µM. The TGI (DU-145 prostate) was > 100 µM, the GI50 (SF-295 CNS) was 4.64 µM and the TGI (SF-295 CNS) was 65.6 µM. The GI50 (KM12 colon) was 78.9 µM, the TGI (KM12 colon) was > 100 µM and the GI50 (MOLT-4 leukemia) was 6.44 µM. For the same compound, the TGI (MOLT-4 leukemia) was > 100 µM, the GI50 (HCC-2998 colon) was > 100 µM and the TGI (HCC-2998 colon) was > 100 µM. The GI50 (EKVX NSCLC) was 30.3 µM, the TGI (EKVX NSCLC) was > 100 µM and the GI50 (UACC-62 melanoma) was 12.3 µM. For the same compound, the TGI (UACC-62 melanoma) was > 100 µM, the GI50 (HOP-92 NSCLC) was 4.78 µM and the TGI (HOP-92 NSCLC) was 36.8 µM. The GI50 (CCRF-CEM leukemia) was 8.91 µM, the TGI (CCRF-CEM leukemia) was > 100 µM and the GI50 (IGROV1 ovarian) was 16.5 µM. The TGI (IGROV1 ovarian) was > 100 µM, the GI50 (K-562 leukemia) was 8.81 µM and the TGI (K-562 leukemia) was > 100 µM. The GI50 (NCI-H23 lung) was 21 µM, the TGI (NCI-H23 lung) was > 100 µM and the GI50 (MDA-MB-468 breast) was 4.75 µM. It also gave a TGI (MDA-MB-468 breast) of 40.9 µM, a GI50 (CAKI-1 renal) of 15.9 µM and a TGI (CAKI-1 renal) of 62.4 µM. The GI50 (OVCAR-5 ovarian) was > 100 µM, the TGI (OVCAR-5 ovarian) was > 100 µM and the GI50 (BT-549 breast) was 25 µM. The TGI (BT-549 breast) was > 100 µM, the GI50 (A549 NSCLC) was 15.5 µM and the TGI (A549 NSCLC) was > 100 µM. The GI50 (PC-3 prostate) was 5.96 µM, the TGI (PC-3 prostate) was > 100 µM and the GI50 (LOX IMVI melanoma) was 15.9 µM. For the same compound, the TGI (LOX IMVI melanoma) was 46.9 µM, the GI50 (SK-MEL-2 melanoma) was > 100 µM and the TGI (SK-MEL-2 melanoma) was > 100 µM. The GI50 (OVCAR-3 ovarian) was 15.1 µM, the TGI (OVCAR-3 ovarian) was 67 µM and the GI50 (T-47D breast) was 4.4 µM. For the same compound, the TGI (T-47D breast) was 50.4 µM, the GI50 (OVCAR-4 ovarian) was 4.24 µM and the TGI (OVCAR-4 ovarian) was > 100 µM. For the same compound, the GI50 (786-0 renal) was 16.2 µM, the TGI (786-0 renal) was > 100 µM and the GI50 (SF-268 CNS) was 25 µM. For the same compound, the TGI (SF-268 CNS) was > 100 µM, the GI50 (MDA-MB-231 breast) was 15.7 µM and the TGI (MDA-MB-231 breast) was 39.3 µM. For the same compound, the GI50 (HL-60(TB) leukemia) was > 100 µM, the TGI (HL-60(TB) leukemia) was > 100 µM and the GI50 (OVCAR-8 ovarian) was 6.34 µM. For the same compound, the TGI (OVCAR-8 ovarian) was 34 µM, the GI50 (NCI-H226 lung) was 11.2 µM and the TGI (NCI-H226 lung) was 36.9 µM. The GI50 (COLO 205 colon) was 99.1 µM, the TGI (COLO 205 colon) was > 100 µM and the GI50 (NCI-H522 lung) was 8.29 µM. The TGI (NCI-H522 lung) was > 100 µM.
